Where two headings read alike, the source gives them in different places.
Legend:
[1] = test system: rats with spinal cord injury; assay: BBB locomotor test after moderate to severe spinal cord injury; type: in vivo, rat; settings: intrathecal via ESOX pump, 60 μl per day
Method: In this study, twenty-four rats deeply anesthetized rats received a moderate to severe spinal cord injury using a 2-French Fogarty embolectomy catheter. Shortly after injury, a 1-French silicon tubing was threaded into the intrathecal space from the atlanto-occipital membrane. The intrathecal catheter was connected an ESOX that was implanted subcutaneously. The ESOX pump flowed at a rate of 60 μl per day. Animals were randomly assigned to receive saline or salicylate. Animals were tested each week using the BBB locomotor test. All of the behavioral testing was done by a person who was unaware of the type of drug delivered or the expected effects of the drug. […] The average score for the saline treated rats was 0 while the average score for salicylate treated rats was 5.45.

[2] = test system: rats with chronic spinal cord injury exhibiting allodynia; assay: Intrathecal salicylate for pain: allodynia on light touch in rats with chronic spinal cord injury; type: in vivo, rat; settings: intrathecal via ESOX pump, 60 μl per day; two rats; saline replaced by salicylate
Method: A 1-French silicon tubing was threaded into the intrathecal space from the atlanto-occipital membrane. The intrathecal catheter was connected an ESOX that was implanted subcutaneously. The ESOX pump flowed at a rate of 60 μl per day. Initially, saline was placed in the pumps. At testing on days 2, 12, 14 after pump placement, signs of allodynia were consistently observed when the animals were lightly touched at particular parts of their body (left flank for rat 1 and right shoulder for rat 2). Animals vocalized consistently when these areas were lightly touched. All of the behavioral testing was done by a person who was unaware of the type of drug delivered or the expected effects of the drug. The saline was removed from the pumps and the pumps were refilled with salicylate. […] When the salicylate was removed and replaced with saline, consistent allodynia was observed.

Male Sprague-Dawley rats [3] = settings: rat, in vivo
Male Sprague-Dawley rats [4] = settings: rat, in vivo; remark: listed apart in the source
Male Sprague-Dawley rats [5] = settings: rat, in vivo; remark: listed apart in the source

| Compound | functional deficits versus saline [1] | average BBB locomotor score ([1]; started shortly after injury) | allodynia (vocalization when lightly touched) [2] | effect on flinches/licks of the hindpaw (formalin test) (Male Sprague-Dawley rats [3]) | duration of effects (Male Sprague-Dawley rats [4]) | onset of response to the bolus (Male Sprague-Dawley rats [4]) | tail flick latency response (Male Sprague-Dawley rats [4]) | colorectal distension visceromotor response threshold (Male Sprague-Dawley rats [5]) | duration of effects (Male Sprague-Dawley rats [5]) | onset of response to the bolus (Male Sprague-Dawley rats [5]) |
| --- | --- | --- | --- | --- | --- | --- | --- | --- | --- | --- |
| O=C(O)c1ccccc1O [salicylate] | on average less functional deficits | 5.45 | no evidence of allodynia was observed | – | – | – | – | – | – | – |
| choline-magnesium trisalicylate [Choline-Mg-Salicylate] | – | – | – | produced an effect | not long-lasting | rapid in onset | dose-dependent | dose-dependent | not long-lasting | rapid in onset |

From patent US8513281B1 (priority 1999, dated 2013)
